Data from patent US6846807B1, “Colorectal neoplasia prophylaxis” (Board of Regents, The University of Texas System, priority 2003, dated 2005).

What was measured:
[1] = system: cultured human endothelial cells; conditions: cited from earlier work
[2] = system: chick embryo chorioallantoic membranes (CAM); conditions: cited from earlier work
[3] = system: phospholipase C (PLC); conditions: cited from earlier work
[4] = system: Smad3 mutant mice; test: Colorectal tumor development in Smad3 mutant mice given antibiotics in drinking water; assay type: in vivo
Description: I. Orally-delivered aminoglycosides reduce development of colon cancer in animal models predisposed to colon neoplasia. Smad3 mutant and APC/MIN mice are fed on a standard laboratory diet, with aminoglycoside antibiotics added to the water. […] Metronidazole was diluted in sterile drinking water to a final concentration of 0.5 mg/ml. The same concentrations are used for either combined or separate drug trials.
Smad3 mutant mice are maintained in 129Sv strain; APC/MIN mice are maintained in C57BL/6J. Both Smad3 mutant and APC/MIN mice are started on antibiotics at 5 weeks of age (range: 4-6 weeks). Mice are monitored and scored for survival and visible rectal tumors. Mice are sacrificed when showing severe distress (typically rectal prolapse with significant dehydration,. hypokinesis, cachexia). At sacrifice mice are dissected and their overall state assessed. Large intestines were harvested, opened longitudinally, and tumor number, location, and size recorded.

[5] = system: colorectal polyps; test: Double-blind, placebo-controlled study of colorectal polyps in patients with familial adenomatous polyposis; assay type: in vivo, human; conditions: 1 or 2 g/day orally, after six months, change from base line
Description: II. […] All patients undergo endoscopy at the beginning and end of the study. The number and size of polyps is determined from photographs and videotapes; the response to treatment is expressed as the mean percent change from base line.

[6] = system: colorectal adenomas; test: Double-blind, placebo-controlled trial of colorectal adenomas in patients with previous colorectal cancer; assay type: in vivo, human; conditions: daily use of 1 or 2 g, patients with a history of colorectal cancer
From the text: III. Orally-delivered aminoglycosides reduce development of colorectal adenomas in patients with previous colorectal cancer. […] We determine the proportion of patients with adenomas, the number of recurrent adenomas, and the time to the development of adenoma between randomization and subsequent colonoscopic examinations. Relative risks are adjusted for age, sex, cancer stage, the number of colonoscopic examinations, and the time to first colonoscopy.

[7] = system: cultured angiogenin-secreting tumor cells; conditions: injected, mice; cited from earlier work
[8] = system: azoxymethane (AOM) and 1,2-dimethyl hydrazine (DMH)-induced colon cancers; conditions: AOM and DMH chemical carcinogenesis models; cited from earlier work

Compound: COc1ccc2c(c1)CC[C@@H]1[C@@H]2CC[C@]2(C)[C@@H](NCCCCCCN3C(=O)C=CC3=O)CC[C@@H]12 [U-73122]
- angiogenin-induced cell proliferation [1]: similarly inhibited angiogenin-induced cell proliferation and angiogenesis
- angiogenin-induced angiogenesis / anti-angiogenic activity [2]: similarly inhibited angiogenin-induced cell proliferation and angiogenesis
- PLC inhibition [3]: PLC inhibitor

Compound: NCC[C@H](O)C(=O)N[C@@H]1C[C@H](N)[C@@H](O[C@H]2O[C@H](CN)[C@@H](O)[C@H](O)[C@H]2O)[C@H](O)[C@H]1O[C@H]1O[C@H](CO)[C@@H](O)[C@H](N)[C@H]1O [amikacin]
- angiogenin-induced angiogenesis / anti-angiogenic activity [2]: lack anti-angiogenic activity

Compound: Cc1ncc([N+](=O)[O-])n1CCO [metronidazole]
- tumor development compared with non-treated controls ([4]; 0.5 mg/ml in drinking water): not significantly different from non-treated controls

Compound: NC[C@@H]1O[C@H](O[C@H]2[C@@H](O)[C@H](O[C@@H]3[C@@H](O)[C@H](N)C[C@H](N)[C@H]3O[C@H]3O[C@H](CO)[C@@H](O)[C@H](O)[C@H]3N)O[C@@H]2CO)[C@H](N)[C@@H](O)[C@@H]1O [paromomycin]
- reduction in the mean number of colorectal polyps [5]: ~30%
- reduction in the polyp burden (the sum of polyp diameters) [5]: ~30%
- occurrence of new colorectal adenomas [6]: decreases the occurrence of new colorectal adenomas
- angiogenin-induced angiogenesis / anti-angiogenic activity [2]: lack anti-angiogenic activity

Compound: [H]/N=C(/N)N[C@H]1[C@H](O)[C@@H](O)[C@H](O[C@@H]2O[C@@H](C)[C@](O)(C=O)[C@H]2O[C@@H]2O[C@@H](CO)[C@H](O)[C@@H](O)[C@@H]2NC)[C@@H](N/C(N)=N\[H])[C@@H]1O [streptomycin]
- angiogenin-induced angiogenesis / anti-angiogenic activity [2]: lack anti-angiogenic activity

Compound: gentamicin
- angiogenin-induced angiogenesis / anti-angiogenic activity [2]: lack anti-angiogenic activity

Compound: neomycin
- mice in which development of tumors was prevented ([4]; oral treatment, at 24 weeks, 9 of 10 untreated mice developed colorectal tumors): 11 of 12
- reduction in the mean number of colorectal polyps [5]: ~30%
- reduction in the polyp burden (the sum of polyp diameters) [5]: ~30%
- occurrence of new colorectal adenomas [6]: decreases the occurrence of new colorectal adenomas
- angiogenin-induced cell proliferation [1]: able to reduce angiogenin-induced cell proliferation and angiogenesis
- angiogenin-induced angiogenesis / anti-angiogenic activity [2]: able to reduce angiogenin-induced cell proliferation and angiogenesis
- PLC inhibition [3]: inhibits PLC
- growth of transplanted angiogenin-secreting tumor cells [7]: able to reduce growth
- incidence of colon adenocarcinomas [8]: may actually increase the incidence of colon adenocarcinomas
